# Measurements as given in PubChem BioAssay AID1996.
# Settings: buffer; pH 7.4; 200.0 µM
row,SMILES,solubility kinetic [µg/mL]
1,CC(=O)c1sc(-c2ccccc2)cc1NS(=O)(=O)c1ccc(C)cc1,1.1
2,Cc1ccc(SCCSc2nc(N)cc(=O)[nH]2)cc1,6.7
3,COc1ccc(CCNc2c([N+](=O)[O-])ncn2C)cc1OC,45.8
4,NC(=O)c1cc([N+](=O)[O-])ccc1NCCc1ccccc1,< 0.2
5,COc1ccc(CCNC(=O)c2coc3ccccc3c2=O)cc1,1.7
6,Cc1ccc(S(=O)(=O)N2CCOCC2)cc1NC(=O)COC(=O)Cc1ccccc1,> 64.9
7,CCC(C)N(C)C1CCN(C(=S)Nc2cccc(SC)c2)CC1 (centres undefined),> 52.7
8,Nc1ccc2c(c1)OC1(CCCCC1)O2,19.1
9,CCOC(=O)c1c(C)n(C)c2c1cc(OC(C)=O)c1ccccc12,< 0.7
10,Fc1ccc2[nH]c3c(NCc4ccccc4)ncnc3c2c1,3.4
11,Cc1ccccc1NC(=O)Cn1cc(C(=O)C2CC2)c2ccccc21,0.7
12,O=[N+]([O-])c1ccc(-c2cn3c(n2)CCC3)cc1,25.5
13,CC(=O)c1ccc(N2CCN(C(=S)NCCCN(C)C)CC2)cc1,> 52.3
14,COc1ccc(CCNC(=O)Nc2ccc3c(c2)OCO3)cc1OC,5.3
15,O=S1(=O)CCN(OCc2ccc(Cl)cc2)CC1,> 41.4
16,Fc1ccc(CNc2nc(-c3cccnc3)nc3ccccc23)cc1,5.6
17,Nc1ncnc(NC2CCS(=O)(=O)C2)c1[N+](=O)[O-] (centres undefined),> 41
18,O=C(COC(=O)CNC(=O)C1CCCCC1)NCc1ccccc1,> 49.9
19,O=C(NC1CCN(c2ncccn2)CC1)c1c(F)cccc1F,> 47.7
20,CS(=O)(=O)c1ccc(Cl)c(NC(=O)CCNC(=O)c2ccco2)c1,49.9
21,Cc1ccc2c(COC(=O)C3CSC4(C)CCC(=O)N34)cc(=O)oc2c1C (centres undefined),38.4
22,O=C(NCC1CCCO1)c1ccc[nH]1 (centres undefined),> 29.1
23,NS(=O)(=O)c1ccc(OC(=O)CNC(=O)OCc2ccccc2)cc1,34.3
24,CCOC(=O)C1=C(C)C(c2ccc(OC)cc2)NC(=O)N1 (centres undefined),> 43.5

row,SMILES,solubility kinetic [µg/mL]
1,CCCCN=C1CC(C)(C)CC(=O)/C1=C(/O)CCC,> 39.8
2,NC(=O)CN1C(=O)C(=O)N(Cc2cccc(Cl)c2)C1=O,> 44.4
3,O=C(O)c1ccc(-c2nc3scc(-c4ccccc4)c3c(=O)[nH]2)cc1,> 52.3
4,COc1ccc(CCNC(=O)CSCC(=O)Nc2cc(S(C)(=O)=O)ccc2Cl)cc1,18.6
5,Cc1cc(NC(=O)c2ccccc2)no1,28.8
6,O=C(/C=C/c1ccc([N+](=O)[O-])cc1)/C=C/c1ccco1,3.1
7,CCOC(=O)c1ccc(NC(=S)NC(=O)C2CCCC2)cc1,< 0.3
8,CCOC(=O)C1(CCOc2ccccc2)CCN(CC2CC2)CC1,45.7
9,COC(=O)C1CN(C(=O)c2ccc(OC(F)F)cc2)c2ccccc2O1 (centres undefined),43.1
10,O=C(NC1CCCCC1)N1CCN(c2ccc(Cl)cc2)CC1,19.6
11,CCOc1ccc(NC(=O)CN2C(=O)CSC2=O)cc1,> 44.1
12,O=C(O)CCC(=O)N1CCc2c([nH]c3ccccc23)C1C(F)(F)F (centres undefined),> 51
13,O=c1oc(/C=C/c2ccccc2)nc2ccccc12,0.7
14,COc1ccc(CC(=O)Nc2nccs2)cc1S(=O)(=O)N1CCOCC1,> 59.6
15,O=C(COc1ccc2c(c1)OCO2)Nc1cccc(F)c1,21.5
16,COc1ccc(CCNC(=O)c2cc3ccccc3oc2=O)cc1,< 0.7
17,Cc1ccc(C(=O)NC(C)c2ccc(C)c(C)c2)s1 (centres undefined),3.5
18,Cc1cc(C)n(CC(=O)NCc2ccccc2)c(=O)c1C#N,43.5
19,COCCCNc1nc2nonc2nc1N1CCN(C2CCCC2)CC1,45.9
20,Oc1ccccc1-c1nc2ccccc2nc1-c1ccccc1,25.1
21,O=C1Nc2ccc(S(=O)(=O)N(CCO)CCO)c3cccc1c23,> 50.5
22,CNc1c(-n2cc(C(=O)OC)c(C(=O)OC)c2C(=O)OC)c(=O)n(C)c(=O)n1C,56.7
23,COC(=O)c1ccncc1N,> 22.8
24,O=C(Nc1ccc(S(=O)(=O)Nc2ccccc2)cc1)C1CC1,12.6

row,SMILES,solubility kinetic [µg/mL]
1,O=C(NCc1ccco1)/C(=C\c1ccccc1)NC(=O)c1ccccc1,17.2
2,COc1ccccc1NC(=S)NC12CN3CN(CN(C3)C1)C2,43.3
3,O=C1NC(=S)N/C1=C/c1ccc2c(c1)OCO2,1.5
4,O=C(CCOc1ccc(F)cc1)Nc1nccs1,5.6
5,CC(C)c1ccc(NC(=O)Cc2c(C(=O)O)n(C)c3ccccc23)cc1,> 52.6
6,Cc1ccc2cc(C)c(N3CCN(c4ccc(F)cc4)CC3)nc2c1,< 0.2
7,CCOc1ccc(C)cc1S(=O)(=O)NC1CCCCCC1,2.2
8,Nc1ccc(C(=O)OCc2ccncc2)cc1[N+](=O)[O-],14
9,CC(C)Oc1nc(-c2ccccc2Cl)nc2ccccc12,0.4
10,O=C(O)C1C2CCC(C2)C1C(=O)Nc1ccc(Cl)c(Cl)c1 (centres undefined),< 0.7
11,CCOC(=O)C1CCCN(C(=O)c2cc3cc(OC)c(OC)cc3[nH]2)C1 (centres undefined),17.5
12,CC(C)n1cnc2cc(NC(=O)c3ccco3)ccc21,> 40.4
13,CCN(C(=O)COC(=O)c1ccc(O)cc1)c1cccc2ccccc12,24.6
14,COc1cccc(C(O)Cc2nc3ccccc3n2C)c1OC (centres undefined),> 46.9
15,COC(=O)CSC(=S)N1C(C)CCCC1C (centres undefined),31.1
16,O=c1c2ccccc2nc2oc3ccccc3n12,1.1
17,Cc1cscc1NC(=O)/C=C/C(=O)O,31.5
18,O=C(NCC1CCCO1)c1ccc(Br)s1 (centres undefined),42.4
19,COc1ccc(S(=O)(=O)NC2CCCC2)c(OC)c1,> 42.8
20,CCOc1ccc(NC(=O)CN2C(=O)C(C)SC(C)C2=O)cc1 (centres undefined),34.8
21,CC(C)N(C(=O)CSc1nc2ccccc2c(=O)[nH]1)C(C)C,46.4
22,O=C(NCC1CC1)Nc1cccs1,> 29.4
23,COCCCN(C(=O)C1CCCCC1)c1c(N)n(Cc2ccccc2)c(=O)[nH]c1=O,14.3
24,O=C(O)c1cc([N+](=O)[O-])ccc1NCCc1ccccc1,> 42.9

row,SMILES,solubility kinetic [µg/mL]
1,CN(CCC#N)C(=O)COc1ccc(Br)cc1Cl,> 49.7
2,Cc1ccc(NC(=O)c2ccc(Oc3ncccn3)cc2)cc1,5
3,O=C(Cc1ccc([N+](=O)[O-])cc1)NCc1ccccn1,> 40.7
4,O=C(COC(=O)Cc1ccc([N+](=O)[O-])cc1)NCc1ccc2c(c1)OCO2,55.5
5,CC(C)c1ccc(/C=C2\SC(N3CCOCC3)=NC2=O)cc1,29.9
6,Cc1cc2oc(C(=O)N3CCN(Cc4ccccc4)CC3)c(C)c2cc1C,3.7
7,Nc1ncnc(Nc2c(F)cccc2F)n1,> 33.5
8,Cc1c([N+](=O)[O-])c(C(=O)NC2CCCCC2)nn1C,> 39.9
9,CCN(Cc1ccccc1)C(=O)CSc1nncn1C,> 43.6
10,COc1ccccc1N(CC(=O)Nc1ccccc1C(F)(F)F)S(=O)(=O)c1cccs1,9
11,NC(=S)Nc1cccc(-c2n[nH]c(=S)o2)c1,> 37.8
12,COc1ccc(OC)c(NC(=O)COC(=O)CCS(=O)(=O)c2ccc(Cl)cc2)c1,27.5
13,CC1(C2CC2)NC(=O)N(CC(=O)NCC(=O)Nc2ccc(F)c(F)c2F)C1=O (centres undefined),> 59.8
14,Cc1ccccc1NS(=O)(=O)c1csc(C(N)=O)c1,> 44.5
15,Nc1cc(=O)[nH]c(SCC(=O)NC2CCCCCCC2)n1,> 46.6
16,NS(=O)(=O)c1ccc(Sc2ccc3c(c2)CCC3)nc1,2.5
17,COC(=O)c1cnn2c1C(=O)N(Cc1cccs1)CC2,> 43.7
18,O=C(Nc1ccc(-c2cn3c(n2)SCC3)cc1)c1ccco1,24.1
19,Cc1cc(C(=O)OCC(=O)Nc2ccccc2C(F)(F)F)on1,> 49.2
20,CCCCCCc1c(O)nc(SCCN(C)C)[nH]c1=O,32.8
21,CCC(=O)OCCn1c(=O)c2ccccc2c2ccccc2c1=O,> 48.5
22,COc1ccc(C(=O)NCCc2ccccc2)cc1[N+](=O)[O-],> 45
23,O=C1CN(S(=O)(=O)c2cccc(C(=O)O)c2)c2ccccc2N1,> 49.8
24,COc1ccccc1-c1cc(C(=O)N2CCCC2)no1,> 40.8

row,SMILES,solubility kinetic [µg/mL]
1,NC(=O)CCN1CCC(c2nc3ccccc3s2)CC1,35.3
2,COc1ccc(C(C)=O)cc1CN1C(=O)NC(CC(C)C)C1=O (centres undefined),> 47.8
3,Fc1ccc(Br)cc1SCCc1ccncc1,19.7
4,CCOC(=O)c1sc(N)c(C(=O)OCC)c1C,4.4
5,O=C(COC(=O)c1ccc2c(c1)OCO2)Nc1ccccc1Cl,3.5
6,COc1cc(CN=Cc2c(O)n(C(C)(C)C)c(=O)[nH]c2=O)cc(OC)c1,2.8
7,CCC1CCCCN1Cc1c(O)ccc2c(=O)c(-c3ccccc3OC)coc12 (centres undefined),51.3
8,O=C1NCCCCC1NS(=O)(=O)c1ccc(Cl)cc1 (centres undefined),> 45.4
9,COc1ccc(NC(=O)c2cc([N+](=O)[O-])ccc2N2CCCCC2)cc1OC,14
10,COc1ccc(Br)cc1C(=O)Nc1cccc2ncccc12,1.7
11,O=[N+]([O-])c1cnn2cc(Br)cnc12,> 36.5
12,CSc1nc(-c2ccccc2)nc(N2CCOCC2)c1C(C)=O,12
13,COc1ccccc1N(C)S(=O)(=O)c1ccc(C(=O)Nc2cc(F)ccc2C)cc1,7.5
14,CCN(CC)c1ccc(C=Nc2cccc(S(=O)(=O)N3CCOCC3)c2)c(O)c1,8.3
15,COCC(=O)OCC(=O)Nc1ccccc1-c1ccccc1,> 44.9
16,CC(OC(=O)c1cnccn1)C(=O)c1ccccc1 (centres undefined),> 38.4
17,COc1ccccc1NC(=O)c1cc(Cl)nc2ccccc12,3.4
18,COc1ccc2c(c1)C(=O)Nc1cc(Cl)ccc1N2,15.6
19,CC(C(=O)Nc1ccccc1)N1CCN(C(=O)c2ccco2)CC1 (centres undefined),> 49.1
20,c1csc(-c2nc(-c3ccc(-c4ccon4)s3)no2)c1,0.5
21,Cc1cnc(=O)[nH]c1SCc1ccc([N+](=O)[O-])cc1,22.1
22,O=C(Nc1ccc(C2CC2(Cl)Cl)cc1)c1cccc([N+](=O)[O-])c1 (centres undefined),< 0.4
23,CCc1ccc(S(=O)(=O)Nc2nccs2)cc1,27.5
